Measured values taken from ChEMBL document CHEMBL5120795, “Small-Molecule Inhibitors of Tankyrases as Prospective Therapeutics for Cancer” (J Med Chem, 2022).
≈ marks a conversion by molar mass, not a printed value. One block for each molecule: values may come before it.

Tests used:
[1] = molecular target: T1, Poly [ADP-ribose] polymerase tankyrase-2 (Homo sapiens, UniProt Q9H2K2); assay: Inhibition of TNKS2 (unknown origin)
T1 sequence (Q9H2K2 whole entry): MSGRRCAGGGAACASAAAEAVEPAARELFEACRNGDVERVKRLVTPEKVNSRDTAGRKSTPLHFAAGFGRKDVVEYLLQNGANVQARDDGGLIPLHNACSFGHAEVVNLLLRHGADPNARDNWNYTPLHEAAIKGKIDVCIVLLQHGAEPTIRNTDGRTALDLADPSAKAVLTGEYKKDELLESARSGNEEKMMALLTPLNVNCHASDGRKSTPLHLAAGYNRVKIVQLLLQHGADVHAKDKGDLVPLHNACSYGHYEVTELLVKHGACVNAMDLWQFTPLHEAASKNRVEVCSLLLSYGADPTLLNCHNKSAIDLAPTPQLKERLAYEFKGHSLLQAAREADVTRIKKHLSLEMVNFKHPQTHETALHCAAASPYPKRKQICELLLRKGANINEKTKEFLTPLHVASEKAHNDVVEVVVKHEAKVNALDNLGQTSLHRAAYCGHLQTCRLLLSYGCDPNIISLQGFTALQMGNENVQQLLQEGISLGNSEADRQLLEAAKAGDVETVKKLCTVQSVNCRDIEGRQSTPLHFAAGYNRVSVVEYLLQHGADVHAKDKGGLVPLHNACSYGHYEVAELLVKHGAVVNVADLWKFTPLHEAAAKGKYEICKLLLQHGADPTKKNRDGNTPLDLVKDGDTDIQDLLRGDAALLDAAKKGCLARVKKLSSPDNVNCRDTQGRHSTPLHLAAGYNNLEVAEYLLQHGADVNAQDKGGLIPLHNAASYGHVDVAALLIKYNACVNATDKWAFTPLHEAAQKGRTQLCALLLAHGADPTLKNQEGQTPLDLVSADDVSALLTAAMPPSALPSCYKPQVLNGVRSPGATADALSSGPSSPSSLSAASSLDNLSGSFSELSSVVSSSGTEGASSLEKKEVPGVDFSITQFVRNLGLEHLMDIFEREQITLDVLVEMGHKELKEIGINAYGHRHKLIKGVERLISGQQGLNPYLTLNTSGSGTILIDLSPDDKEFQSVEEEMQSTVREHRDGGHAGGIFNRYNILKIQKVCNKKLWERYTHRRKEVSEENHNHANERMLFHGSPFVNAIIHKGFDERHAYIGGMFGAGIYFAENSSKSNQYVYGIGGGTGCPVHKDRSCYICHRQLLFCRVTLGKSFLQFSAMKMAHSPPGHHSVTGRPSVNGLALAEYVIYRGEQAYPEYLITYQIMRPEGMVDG

[2] = Toxicity in mouse xenografted with COLO 320DM cells assessed as reduction in body weight at 60 mg/kg, po daily relative to control; type: organism-based; design: scale not given: the % may be the effect or the level left; settings: in vivo
[3] = Toxicity in mouse xenografted with COLO 320DM cells assessed as reduction in body weight at 30 mg/kg, ip daily relative to control; type: organism-based; design: scale not given: the % may be the effect or the level left; settings: in vivo
SW480 [4] = assay: Antitumor activity against human SW480 cells xenografted in mouse assessed as reduction in tumor size at 150 mg/kg, IP relative to control; type: functional; design: scale not given: the % may be the effect or the level left
SW480 [5] = assay: Antitumor activity against human SW480 cells xenografted in mouse assessed as reduction in tumor size at 300 mg/kg, IP relative to control; type: functional; design: scale not given: the % may be the effect or the level left
[6] = molecular target: T1, Poly [ADP-ribose] polymerase tankyrase-2; assay: Binding affinity to ARC4 domain at TNKS2 (unknown origin) assessed as dissociation constant
[7] = molecular target: T2, Poly [ADP-ribose] polymerase 1 (Homo sapiens, UniProt P09874); assay: Inhibition of PARP1 (unknown origin)
[8] = Stability in mouse liver microsomes assessed as compound remaining measured after 30 mins relative to control; type: ADME, Microsome; settings: read-out: Stability
physchem = settings: aqueous, pH 7.4
[9] = Antitumor activity against human MNNG/HOS cells xenografted in mouse assessed as decrease in tumor growth rate at 5 mg/kg, IT administered every other day for 12 days relative to control; type: functional, HOS-TE85; design: scale not given: the % may be the effect or the level left; settings: time 12 day
[10] = molecular target: T3, Poly [ADP-ribose] polymerase tankyrase-1 (Homo sapiens) (UniProt O95271); assay: Inhibition of TNKS1 (unknown origin) at 1 uM relative to control
T3 sequence (whole entry): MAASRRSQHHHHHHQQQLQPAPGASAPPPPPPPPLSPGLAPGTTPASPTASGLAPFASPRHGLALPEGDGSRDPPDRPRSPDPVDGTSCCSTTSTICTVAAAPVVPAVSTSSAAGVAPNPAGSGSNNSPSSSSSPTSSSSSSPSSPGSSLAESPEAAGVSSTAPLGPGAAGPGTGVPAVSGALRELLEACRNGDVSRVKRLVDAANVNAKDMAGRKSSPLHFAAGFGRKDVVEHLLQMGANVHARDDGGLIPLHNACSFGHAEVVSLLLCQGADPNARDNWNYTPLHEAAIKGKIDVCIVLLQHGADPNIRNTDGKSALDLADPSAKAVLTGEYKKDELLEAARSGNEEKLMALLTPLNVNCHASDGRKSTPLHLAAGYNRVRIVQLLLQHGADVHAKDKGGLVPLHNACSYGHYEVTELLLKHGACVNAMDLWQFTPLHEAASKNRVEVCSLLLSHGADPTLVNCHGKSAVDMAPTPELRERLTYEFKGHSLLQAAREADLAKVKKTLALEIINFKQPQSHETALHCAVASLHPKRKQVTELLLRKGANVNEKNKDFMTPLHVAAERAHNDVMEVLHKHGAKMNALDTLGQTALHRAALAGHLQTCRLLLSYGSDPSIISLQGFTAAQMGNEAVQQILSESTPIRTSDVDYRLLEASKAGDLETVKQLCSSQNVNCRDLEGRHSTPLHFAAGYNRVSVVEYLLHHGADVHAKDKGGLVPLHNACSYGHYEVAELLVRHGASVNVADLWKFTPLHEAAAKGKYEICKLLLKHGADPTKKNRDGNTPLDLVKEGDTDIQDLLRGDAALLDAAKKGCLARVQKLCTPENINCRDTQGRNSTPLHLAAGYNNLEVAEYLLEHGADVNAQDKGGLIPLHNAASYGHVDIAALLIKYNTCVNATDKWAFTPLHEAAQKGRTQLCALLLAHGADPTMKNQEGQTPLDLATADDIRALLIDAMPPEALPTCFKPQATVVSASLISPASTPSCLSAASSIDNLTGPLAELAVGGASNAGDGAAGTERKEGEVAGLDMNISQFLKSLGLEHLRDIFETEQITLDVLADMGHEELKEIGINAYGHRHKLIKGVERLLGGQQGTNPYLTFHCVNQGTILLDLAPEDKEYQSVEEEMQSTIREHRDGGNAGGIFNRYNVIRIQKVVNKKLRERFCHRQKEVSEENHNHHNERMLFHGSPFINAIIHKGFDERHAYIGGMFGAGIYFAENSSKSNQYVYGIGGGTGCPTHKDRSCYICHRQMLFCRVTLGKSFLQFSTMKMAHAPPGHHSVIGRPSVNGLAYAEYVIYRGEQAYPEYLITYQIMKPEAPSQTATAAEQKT

[11] = molecular target: T4, Poly [ADP-ribose] polymerase tankyrase-2 (Homo sapiens) (UniProt Q9H2K2); assay: Inhibition of TNKS2 (unknown origin) at 1 uM relative to control
T4 sequence (whole entry): T1 sequence (Q9H2K2 whole entry)

[12] = molecular target: T2, Poly [ADP-ribose] polymerase 1; assay: Inhibition of PARP1 (unknown origin) at 1 uM relative to control
[13] = molecular target: T5, Poly [ADP-ribose] polymerase 2 (Homo sapiens, UniProt Q9UGN5); assay: Inhibition of PARP2 (unknown origin) at 1 uM relative to control
[14] = molecular target: T6, Poly [ADP-ribose] polymerase tankyrase-1 (Homo sapiens, UniProt O95271); assay: Inhibition of TNKS1 (unknown origin)
T6 sequence (O95271 whole entry): T3 sequence (whole entry)

[15] = molecular target: T5, Poly [ADP-ribose] polymerase 2; assay: Inhibition of PAPR2 (unknown origin)
[16] = Oral bioavailability in mouse relative to control; type: ADME, organism-based; settings: in vivo
[17] = Disruption of ARC5 domain of TNKS1 (unknown origin)/USP25 (unknown origin) protein interaction assessed as inhibition constant; design: species or system Homo sapiens

T2 sequence (P09874 whole entry): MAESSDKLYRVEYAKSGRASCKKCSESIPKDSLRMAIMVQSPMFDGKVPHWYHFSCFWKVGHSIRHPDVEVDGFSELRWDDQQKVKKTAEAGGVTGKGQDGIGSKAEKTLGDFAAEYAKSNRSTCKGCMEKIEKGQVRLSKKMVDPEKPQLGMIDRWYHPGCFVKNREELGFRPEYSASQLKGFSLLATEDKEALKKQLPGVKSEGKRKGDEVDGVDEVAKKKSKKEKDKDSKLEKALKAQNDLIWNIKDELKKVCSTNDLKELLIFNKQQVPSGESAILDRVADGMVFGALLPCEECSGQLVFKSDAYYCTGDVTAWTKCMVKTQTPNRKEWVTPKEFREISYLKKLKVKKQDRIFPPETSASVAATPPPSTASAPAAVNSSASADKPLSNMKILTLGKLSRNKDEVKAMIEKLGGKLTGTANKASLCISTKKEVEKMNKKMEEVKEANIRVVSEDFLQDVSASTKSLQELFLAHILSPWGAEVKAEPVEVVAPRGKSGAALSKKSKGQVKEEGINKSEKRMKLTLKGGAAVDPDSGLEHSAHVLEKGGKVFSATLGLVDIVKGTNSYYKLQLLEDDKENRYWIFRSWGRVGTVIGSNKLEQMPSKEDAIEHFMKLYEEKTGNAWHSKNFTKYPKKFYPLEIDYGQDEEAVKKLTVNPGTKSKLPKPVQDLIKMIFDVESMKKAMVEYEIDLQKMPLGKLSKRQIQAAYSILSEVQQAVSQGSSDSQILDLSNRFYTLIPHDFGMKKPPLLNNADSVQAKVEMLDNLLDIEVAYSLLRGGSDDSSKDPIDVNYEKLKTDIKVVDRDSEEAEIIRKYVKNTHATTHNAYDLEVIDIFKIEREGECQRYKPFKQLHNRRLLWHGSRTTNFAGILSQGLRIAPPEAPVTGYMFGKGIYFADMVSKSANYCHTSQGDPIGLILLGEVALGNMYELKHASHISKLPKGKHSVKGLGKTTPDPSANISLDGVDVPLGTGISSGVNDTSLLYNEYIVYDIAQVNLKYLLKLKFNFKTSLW
T5 sequence (Q9UGN5 whole entry): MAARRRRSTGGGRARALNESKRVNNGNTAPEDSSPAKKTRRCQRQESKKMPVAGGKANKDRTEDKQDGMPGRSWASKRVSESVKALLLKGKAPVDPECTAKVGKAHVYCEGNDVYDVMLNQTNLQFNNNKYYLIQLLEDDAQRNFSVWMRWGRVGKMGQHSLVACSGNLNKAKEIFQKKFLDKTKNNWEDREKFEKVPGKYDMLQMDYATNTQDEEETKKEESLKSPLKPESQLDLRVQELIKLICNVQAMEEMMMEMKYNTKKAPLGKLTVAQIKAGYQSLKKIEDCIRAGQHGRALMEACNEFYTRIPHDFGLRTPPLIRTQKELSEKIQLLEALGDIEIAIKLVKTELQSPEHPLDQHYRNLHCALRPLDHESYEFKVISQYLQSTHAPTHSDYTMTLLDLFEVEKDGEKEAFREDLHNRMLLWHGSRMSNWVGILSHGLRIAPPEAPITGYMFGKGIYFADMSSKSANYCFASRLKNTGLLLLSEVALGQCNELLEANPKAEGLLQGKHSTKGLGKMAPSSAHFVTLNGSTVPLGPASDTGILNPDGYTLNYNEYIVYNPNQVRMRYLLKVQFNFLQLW

IC50 [1]: 0.015 µM
SMILES: COc1ccc(-n2c(SCCCN3C(=O)c4cccc5cccc(c45)C3=O)nnc2-c2ccncc2)cc1

IC50 [7]: > 100 µM
remaining at 0.5 h [8]: 0%
solubility (physchem): 10 µg/mL (≈ 29.4 µM)
SMILES: COc1ccccc1N1CCN(c2nc3c(c(=O)[nH]2)CCCC3)CC1

inhibition [10]: 100%
inhibition [11]: 100%
inhibition [12]: 0%
inhibition [13]: 0%
SMILES: COc1cc2ncnc(N3CCC(CN4Cc5ccccc5N(c5ccc(F)c(C#N)c5)C4=O)CC3)c2cc1OC

IC50 [14]: 0.009 µM
IC50 [1]: 0.003 µM
IC50 [7]: > 10 µM
SMILES: O=C(Nc1cccc2c(=O)[nH]ccc12)[C@H]1CCCNC1

IC50 [7]: > 10 µM
IC50 [15]: > 10 µM
SMILES: Cc1cc(NCCc2ccc(O)cc2)c2nncn2n1

IC50 [1]: 1.9 µM
IC50 [7]: 1.8 µM
SMILES: COc1ccc(C2(CNC(=O)c3ccc(NC(=O)c4ccco4)cc3)CCOCC2)cc1

Ki [17]: 20.5 µM
SMILES: CCc1ccc(OCC(=O)Nc2sc(C)c(C)c2C(N)=O)c(F)c1

The next lines start with the molecule.

SMILES: CS(=O)(=O)c1ccc(-c2nnc(/C=C/c3nnc(-c4ccc(C#N)cc4)o3)n2-c2ccccc2Cl)nc1
Activity [2]: > 15%
Activity [3]: > 15%

SMILES: COc1ccc(-n2c(SCc3nc(-c4ccc(C)cc4)no3)nnc2-c2ccncc2)cc1
Activity (SW480 [4]): 33%
Activity (SW480 [5]): 35%

SMILES: CC(=O)N[C@@H](CCCNC(=N)N)C(=O)N[C@@H](CCC(=O)O)C(=O)N[C@H]1CCn2cc(nn2)CCCc2cn(nn2)CC[C@@H](C(=O)N[C@@H](CCC(=O)O)C(N)=O)NC(=O)CNC(=O)[C@H](CC(=O)O)NC(=O)CNC1=O
Kd [6]: 0.6 µM

SMILES: O=C(Nc1cccc2cccnc12)c1ccc(N2C(=O)[C@@H]3[C@H](C2=O)[C@@H]2C=C[C@H]3C2)cc1
Activity [9]: 73%

SMILES: C[C@@H]1CN(c2cc(F)c3c(c2)N(C)C(=O)C32CCN(c3nc4c(c(=O)[nH]3)CCCN4C)CC2)C[C@H](C)O1
bioavailability [16]: 100%

SMILES: CC(=O)N[C@@H](CCCNC(=N)N)C(=O)N[C@@H](CCC(=O)O)C(=O)N[C@H]1CCn2cc(nn2)-c2cc(C(=O)O)cc(c2)-c2cn(nn2)CC[C@@H](C(=O)N[C@@H](CCC(=O)O)C(N)=O)NC(=O)CNC(=O)[C@H](CC(=O)O)NC(=O)CNC1=O
Kd [6]: 0.44 µM
